Where a name gives a salt, the structure may show the parent alone.
Biological target: T1, human GPR119 (hGPR119) (Homo sapiens, UniProt Q8TDV5)
T1 construct: expressed in transfected cells
T1 sequence (Q8TDV5 1-335): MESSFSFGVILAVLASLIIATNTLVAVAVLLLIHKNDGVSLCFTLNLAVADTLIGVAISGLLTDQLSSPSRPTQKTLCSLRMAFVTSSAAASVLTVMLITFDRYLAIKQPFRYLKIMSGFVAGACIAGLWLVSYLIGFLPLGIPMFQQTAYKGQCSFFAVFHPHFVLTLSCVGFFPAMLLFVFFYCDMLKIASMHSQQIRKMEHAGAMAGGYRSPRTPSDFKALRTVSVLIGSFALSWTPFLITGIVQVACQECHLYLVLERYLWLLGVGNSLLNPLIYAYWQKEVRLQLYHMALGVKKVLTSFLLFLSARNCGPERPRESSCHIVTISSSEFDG
Assay: cAMP accumulation assay (Cisbio cAMP Gs dynamic HTRF kit) in CHO-K1 cells stably expressing human GPR119
Format: cell-based
Settings: 4-parameter fit; for Emax: 1 h, % activity normalized to Max and Min controls; for EC50: 60 minutes at 37° C.
Method: CHO-K1 cells stably expressing human GPR119 (hGPR119) were prepared by transfection of a GPR119-carrying plasmid using Lipofectamine 2000 (following manufacturer instructions). A stable cell line was established using the limiting dilution method with geneticine selection. Assay-ready frozen (ARF) cells were prepared and used throughout the study.
The assay was performed in a 384-well plate format using the cAMP Gs dynamic assay kit from Cisbio. ARF cells expressing hGPR119 were thawed, washed and then resuspended in cAMP stimulation buffer at a cell density of 1.1×10^6 cells/mL. Cells were plated at a density of ˜10,000 cells/well (9 μL/well). Dose response curves for the tested compounds were prepared in a cAMP stimulation buffer, containing 0.1% Tween 80 at 4 fold the final concentration. The compounds were then transferred to the cell plates using BRAVO (3 μL/well) and the plates were incubated for 60 minutes at 37° C./5% CO2. Detection buffer (10 μL, prepared as described in the cAMP Gs dynamic kit) were added to each well, and the plates were incubated at ambient temperature for 1 hr.
RT-FRET was measured using a ClarioSTAR plate reader, calculating the ratio between emissions at 665 nm and 620 nm (HTRF ratio). The HTRF ratio for positive (Max) and negative (Min) controls were used to normalize HTRF data and generate values for % activity. EC50 and Max activity values were determined using a standard 4-parameter fit.

| SMILES | Emax [%] | EC50 [nM] |
| --- | --- | --- |
| O=C(Cc1ccc(OCCCC2CCN(c3ncc(Cl)cn3)CC2)cc1F)N1CCC2(CC1)CCN2C[C@H](O)[C@@H](O)[C@H](O)[C@H](O)CO [Example 68, 2-(4-(3-(1-(5-chloropyrimidin-2-yl)piperidin-4-yl)propoxy)-2-fluorophenyl)-1-(1-((2S,3R,4R,5R)-2,3,4,5,6-pentahydroxyhexyl)-1,7-diazaspiro[3.5]nonan-7-yl)ethan-1-one] | 100 to 130 | ≤ 100 |
| CCCc1cnc(N2CCC(CCCOc3ccc(CC(=O)N4CCN(C[C@H](O)[C@@H](O)[C@H](O)[C@H](O)CO)CC4)c(F)c3)CC2)nc1 [Example 94, 2-(2-fluoro-4-(3-(1-(5-propylpyrimidin-2-yl)piperidin-4-yl)propoxy)phenyl)-1-(4-((2S,3R,4R,5R)-2,3,4,5,6-pentahydroxyhexyl)piperazin-1-yl)ethan-1-one] | 100 to 130 | ≤ 100 |
| COCc1cnc(N2CCC(CCOCc3ccc(CC(=O)N4CCN(C[C@H](O)[C@@H](O)[C@H](O)[C@H](O)CO)CC4)c(F)c3)CC2)nc1 [Example 103, 2-(2-fluoro-4-((2-(1-(5-(methoxymethyl)pyrimidin-2-yl)piperidin-4-yl)ethoxy)methyl)phenyl)-1-(4-((2S,3R,4R,5R)-2,3,4,5,6-pentahydroxyhexyl)piperazin-1-yl)ethan-1-one] | 50 to 100 | > 10000 |
| O=C(Cc1ccc(OCCCC2CCN(c3ncc(Cl)cn3)CC2)cc1F)N1CC2CC(C1)N2C(=O)CCCCS(=O)(=O)O [Example 12, 5-(3-(2-(4-(3-(1-(5-chloropyrimidin-2-yl)piperidin-4-yl)propoxy)-2-fluorophenyl)acetyl)-3,6-diazabicyclo[3.1.1]heptan-6-yl)-5-oxopentane-1-sulfonic acid] | 100 to 130 | ≤ 100 |
| O=C(Cc1ccc(OCCCC2CCN(c3ncc(Cl)cn3)CC2)cc1F)N1CCC2(CC1)CN(C(=O)CCCCS(=O)(=O)O)C2 [Example 22, 5-(7-(2-(4-(3-(1-(5-chloropyrimidin-2-yl)piperidin-4-yl)propoxy)-2-fluorophenyl)acetyl)-2,7-diazaspiro[3.5]nonan-2-yl)-5-oxopentane-1-sulfonic acid] | 100 to 130 | 100 to 1000 |
| O=C(CCCCS(=O)(=O)O)N1CC2(C1)CN(C(=O)Cc1ccc(OCCCC3CCN(c4ncc(Cl)cn4)CC3)cc1F)C2 [Example 3, 5-(6-(2-(4-(3-(1-(5-chloropyrimidin-2-yl)piperidin-4-yl)propoxy)-2-fluorophenyl)acetyl)-2,6-diazaspiro[3.3]heptan-2-yl)-5-oxopentane-1-sulfonic acid] | 100 to 130 | ≤ 100 |
| O=C(Cc1ccc(OCCCC2CCN(c3ncc(Cl)cn3)CC2)cc1F)N1C[C@@H]2CCN(C[C@H](O)[C@H](O)[C@H](O)CO)[C@@H]2C1 [Example 34, 2-(4-(3-(1-(5-chloropyrimidin-2-yl)piperidin-4-yl)propoxy)-2-fluorophenyl)-1-((3aS,6aS)-1-((2S,3S,4R)-2,3,4,5-tetrahydroxypentyl)hexahydropyrrolo[3,4-b]pyrrol-5(1H)-yl)ethan-1-one] | ≥ 130 | ≤ 100 |
| O=C(Cc1ccc(OCCCC2CC23CCN(c2ncc(Cl)cn2)CC3)cc1F)N1CCN(C[C@H](O)[C@@H](O)[C@H](O)[C@H](O)CO)CC1 (stereo partly drawn) [Example 109, 2-(4-(3-(6-(5-chloropyrimidin-2-yl)-6-azaspiro[2.5]octan-1-yl)propoxy)-2-fluorophenyl)-1-(4-((2S,3R,4R,5R)-2,3,4,5,6-pentahydroxyhexyl)piperazin-1-yl)ethan-1-one] | 100 to 130 | 100 to 1000 |
| CCOc1cnc(N2CCC(CCCOc3ccc(CC(=O)N4CCN(C[C@H](O)[C@@H](O)[C@H](O)[C@H](O)CO)CC4)c(F)c3)CC2)nc1 [Example 96, 2-(4-(3-(1-(5-ethoxypyrimidin-2-yl)piperidin-4-yl)propoxy)-2-fluorophenyl)-1-(4-((2S,3R,4R,5R)-2,3,4,5,6-pentahydroxyhexyl)piperazin-1-yl)ethan-1-one] | 100 to 130 | 100 to 1000 |
| O=C(Cc1ccc(OCCCC2CCN(c3ncc(Cl)cn3)CC2)cc1F)N1CCC2(C1)CN(C(=O)CCCCS(=O)(=O)O)C2 [Example 2, 5-(6-(2-(4-(3-(1-(5-chloropyrimidin-2-yl)piperidin-4-yl)propoxy)-2-fluorophenyl)acetyl)-2,6-diazaspiro[3.4]octan-2-yl)-5-oxopentane-1-sulfonic acid] | ≥ 130 | ≤ 100 |
| O=C(Cc1ccc(OCCCC2CCN(c3ncc(Cl)cn3)CC2)cc1F)N1C[C@H]2C[C@@H]1CN2C[C@H](O)[C@H](O)[C@H](O)CO [Example 46, 2-(4-(3-(1-(5-chloropyrimidin-2-yl)piperidin-4-yl)propoxy)-2-fluorophenyl)-1-((1R,4R)-5-((2S,3S,4R)-2,3,4,5-tetrahydroxypentyl)-2,5-diazabicyclo[2.2.1]heptan-2-yl)ethan-1-one] | ≥ 130 | ≤ 100 |
| COCc1cnc(N2CCC(CCCCOc3ccc(CC(=O)N4CCN(C[C@H](O)[C@@H](O)[C@H](O)[C@H](O)CO)CC4)c(F)c3)CC2)nc1 [Example 100, 2-(2-fluoro-4-(4-(1-(5-(methoxymethyl)pyrimidin-2-yl)piperidin-4-yl)butoxy)phenyl)-1-(4-((2S,3R,4R,5R)-2,3,4,5,6-pentahydroxyhexyl)piperazin-1-yl)ethan-1-one] | 100 to 130 | 100 to 1000 |
| O=C(CCCCS(=O)(=O)O)N1CC2(CCN2C(=O)Cc2ccc(OCCCC3CCN(c4ncc(Cl)cn4)CC3)cc2F)C1 [Example 9, 5-(1-(2-(4-(3-(1-(5-chloropyrimidin-2-yl)piperidin-4-yl)propoxy)-2-fluorophenyl)acetyl)-1,6-diazaspiro[3.3]heptan-6-yl)-5-oxopentane-1-sulfonic acid] | 100 to 130 | > 10000 |
| O=C(Cc1ccc(OCCCC2CCN(c3ncc(Cl)cn3)CC2)cc1F)N1CC2(CCC2NC[C@H](O)[C@@H](O)[C@H](O)[C@H](O)CO)C1 (stereo in doubt) [Example 79, 2-(4-(3-(1-(5-chloropyrimidin-2-yl)piperidin-4-yl)propoxy)-2-fluorophenyl)-1-(5-(((2S,3R,4R,5R)-2,3,4,5,6-pentahydroxyhexyl)amino)-2-azaspiro[3.3]heptan-2-yl)ethan-1-one] | ≥ 130 | ≤ 100 |
| O=C(Cc1ccc(OCCCC2CCN(c3ncc(Cl)cn3)CC2)cc1F)N1C2CC1CN(C[C@H](O)[C@@H](O)[C@H](O)[C@H](O)CO)C2 [Example 57, 2-(4-(3-(1-(5-chloropyrimidin-2-yl)piperidin-4-yl)propoxy)-2-fluorophenyl)-1-(3-((2S,3R,4R,5R)-2,3,4,5,6-pentahydroxyhexyl)-3,6-diazabicyclo[3.1.1]heptan-6-yl)ethan-1-one] | 100 to 130 | ≤ 100 |
| O=C(Cc1ccc(OCCCC2CCN(c3ncc(Cl)cn3)CC2)cc1F)N1CC2CC(C1)N2C[C@H](O)[C@H](O)[C@H](O)CO [Example 48, 2-(4-(3-(1-(5-chloropyrimidin-2-yl)piperidin-4-yl)propoxy)-2-fluorophenyl)-1-(6-((2S,3S,4R)-2,3,4,5-tetrahydroxypentyl)-3,6-diazabicyclo[3.1.1]heptan-3-yl)ethan-1-one] | ≥ 130 | ≤ 100 |
| O=C(Cc1ccc(OCCCC2CCN(c3ncc(Cl)cn3)CC2)cc1F)N1CC2(CN(C[C@H](O)[C@H](O)[C@H](O)CO)C2)C1 [Example 25, 2-(4-(3-(1-(5-chloropyrimidin-2-yl)piperidin-4-yl)propoxy)-2-fluorophenyl)-1-(6-((2S,3S,4R)-2,3,4,5-tetrahydroxypentyl)-2,6-diazaspiro[3.3]heptan-2-yl)ethan-1-one formate] | 50 to 100 | > 10000 |
| O=C(Cc1ccc(OCCCC2CCN(c3ncc(Cl)cn3)CC2)cc1F)N1CCC2(CN(C[C@H](O)[C@H](O)[C@H](O)CO)CCO2)C1 (stereo partly drawn) [Example 72, 2-(4-(3-(1-(5-chloropyrimidin-2-yl)piperidin-4-yl)propoxy)-2-fluorophenyl)-1-(9-((2S,3S,4R)-2,3,4,5-tetrahydroxypentyl)-6-oxa-2,9-diazaspiro[4.5]decan-2-yl)ethan-1-one] | 100 to 130 | ≤ 100 |
| O=C(Cc1c(F)cc(OCCCC2CCN(c3ncc(Cl)cn3)CC2)cc1F)N1CCN(C[C@H](O)[C@@H](O)[C@H](O)[C@H](O)CO)CC1 [Example 85, 2-(4-(3-(1-(5-chloropyrimidin-2-yl)piperidin-4-yl)propoxy)-2,6-difluorophenyl)-1-(4-((2S,3R,4R,5R)-2,3,4,5,6-pentahydroxyhexyl)piperazin-1-yl)ethan-1-one formate] | ≥ 130 | ≤ 100 |
